The values that follow come from patent publication US7799814B2, “Thiazole derivatives and use thereof” (Merck Serono S.A., priority 2005, dated 2010).

Usually IC50 stands for the concentration at which inhibition is half-maximal.

Sequence of Human recombinant GST-PI3Kγ (P48736 whole entry): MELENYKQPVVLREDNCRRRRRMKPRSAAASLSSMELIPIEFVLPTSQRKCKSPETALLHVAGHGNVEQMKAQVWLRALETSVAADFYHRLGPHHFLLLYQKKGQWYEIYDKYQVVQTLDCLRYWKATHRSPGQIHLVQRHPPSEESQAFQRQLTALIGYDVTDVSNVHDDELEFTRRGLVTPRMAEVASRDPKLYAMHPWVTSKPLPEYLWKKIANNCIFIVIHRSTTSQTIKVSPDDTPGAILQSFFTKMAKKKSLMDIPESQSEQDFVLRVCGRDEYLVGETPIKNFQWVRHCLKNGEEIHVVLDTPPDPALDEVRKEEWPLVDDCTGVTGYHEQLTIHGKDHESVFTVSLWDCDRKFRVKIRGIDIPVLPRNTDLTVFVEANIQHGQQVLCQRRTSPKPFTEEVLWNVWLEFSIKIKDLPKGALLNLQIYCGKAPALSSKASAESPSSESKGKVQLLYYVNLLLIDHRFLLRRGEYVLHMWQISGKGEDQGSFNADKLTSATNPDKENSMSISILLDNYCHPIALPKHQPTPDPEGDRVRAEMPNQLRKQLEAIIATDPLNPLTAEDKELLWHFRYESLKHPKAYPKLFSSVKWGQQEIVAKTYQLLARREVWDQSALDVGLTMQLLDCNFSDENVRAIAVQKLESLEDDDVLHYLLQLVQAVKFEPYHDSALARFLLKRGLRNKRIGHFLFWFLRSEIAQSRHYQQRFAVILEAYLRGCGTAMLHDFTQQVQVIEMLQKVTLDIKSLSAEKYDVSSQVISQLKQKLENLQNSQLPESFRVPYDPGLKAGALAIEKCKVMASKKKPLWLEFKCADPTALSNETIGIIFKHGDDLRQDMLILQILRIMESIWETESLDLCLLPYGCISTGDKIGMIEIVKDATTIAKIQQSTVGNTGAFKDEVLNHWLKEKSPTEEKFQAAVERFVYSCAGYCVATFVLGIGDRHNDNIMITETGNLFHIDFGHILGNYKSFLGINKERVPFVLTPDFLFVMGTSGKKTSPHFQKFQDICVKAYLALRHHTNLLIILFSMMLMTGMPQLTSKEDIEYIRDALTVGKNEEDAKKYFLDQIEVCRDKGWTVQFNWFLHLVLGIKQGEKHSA

The first experiment has as its target Human recombinant GST-PI3Kγ (Homo sapiens, UniProt P48736). As to the kind of experiment: High Throughput PI3K Lipid Kinase Assay (scintillation proximity assay, neomycin-coated SPA beads). Format: biochemical.
Conditions: not given
From the text: a) High Throughput PI3K Lipid Kinase Assay (Binding Assay):
The efficacy of compounds of the invention in inhibiting the PI3K induced-lipid phosphorylation may be tested in the following binding assay.
The assay combines the scintillation proximity assay technology (SPA, Amersham) with the capacity of neomycin (a polycationic antibiotic) to bind phospholipids with high affinity and specificity. The Scintillation Proximity Assay is based on the properties of weakly emitting isotopes (such as ^3H, ^125I, ^33P). Coating SPA beads with neomycin allows the detection of phosphorylated lipid substrates after incubation with recombinant PI3K and radioactive ATP in the same well, by capturing the radioactive phospholipids to the SPA beads through their specific binding to neomycin.
To a 384 wells MTP containing 5 μl of the test compound of Formula (I) (solubilized in 6% DMSO; to yield a concentration of 100, 30, 10, 3, 1, 0.3, 0.1, 0.03, 0.01, 01 μM of the test compound), the following assay components are added. 1) 5 μl (58 ng) of Human recombinant GST-PI3Kγ (in Hepes 40 mM, pH 7.4, DTT 1 mM and ethylenglycol 5%) 2) 10 μl of lipid micelles and 3) 10 μl of Kinase buffer ([^33P]γ ATP. 45 μM/60 nCi, MgCl mM, DTT 1 mM, β Glycerophosphate 1 mM, NVO4 100 μM, Na Cholate 0.3%, in Hepes 40 mM, pH 7.4). After incubation at room temperature for 180 minutes, with gentle agitation, the reaction is stopped by addition of 60 μl of a solution containing 100 μg of neomycin-coated PVT SPA beads in PBS containing ATP 10 mM and EDTA 5 mM. The assay is further incubated at room temperature for 60 minutes with gentle agitation to allow binding of phospholipids to neomycin-SPA beads. After precipitation of the neomycin-coated PVT SPA beads for 5 minutes at 1500×g, radioactive PtdIns(3)P is quantified by scintillation counting in a Wallac MicroBeta™ plate counter.
The values indicated in Table I below refer to the IC50 (μM) with respect to PI3Kγ, i.e. the amount necessary to achieve 50% inhibition of said target. Said values show a considerable inhibitory potency of thiazole compounds with regard to PI3Kγ.
Background: Scintillation proximity formats need no separation of bound from free tracer.
Consider `CC(=O)Nc1nc(C)c(-c2csc(C(=O)NCCCN(C)C)n2)s1` [Example 10, 2′-(Acetylamino)-N-[3-(dimethylamino)propyl]-4′-methyl-4,5′-bi-1,3-thiazole-2-carboxamide], for which the IC50 came to 2200 nM. As to `CC(=O)Nc1nc(C)c(-c2csc(C(=O)NCC3CCCO3)n2)s1` (stereo not shown) [Example 6, 2′-(Acetylamino)-4′-methyl-N-(tetrahydrofuran-2-ylmethyl)-4,5′-bi-1,3-thiazole-2-carboxamide], the 50% inhibitory concentration (IC50) is 355 nM. Consider `CC(=O)Nc1nc(C)c(-c2csc(C(=O)Nc3nnn[nH]3)n2)s1` [Example 13, 2′-(acetylamino)-4′-methyl-N-1H-tetrazol-5-yl-4,5′-bi-1,3-thiazole-2-carboxamide], for which the IC50 is 13 nM. Still for that read-out and setting: the same measure for `CCOC(=O)c1nc(-c2sc(Nc3cnccn3)nc2C)cs1` [Example 54, Ethyl 4′-methyl-2′-(pyrazin-2-ylamino)-4,5′-bi-1,3-thiazole-2-carboxylate]: 1420 nM. In the case of `COCCNC(=O)Nc1nc(C)c(-c2csc(C(=O)N3CCOCC3)n2)s1` [Example 36, N-(2-methoxyethyl)-N′-[4′-methyl-2-(morpholin-4-ylcarbonyl)-4,5′-bi-1,3-thiazol-2′-yl]urea], the concentration for half-maximal inhibition (IC50) worked out at 795 nM.

In the case of `CC(=O)Nc1nc(C)c(-c2csc(C(=O)O)n2)s1` [Example 4, 2′-(Acetylamino)-4′-methyl-4,5′-bi-1,3-thiazole-2-carboxylic acid], the half-inhibitory concentration (IC50) was 494 nM. As to `CC(=O)Nc1nc(C)c(-c2csc(Cc3nnn[nH]3)n2)s1` [Example 23, N-[4′-methyl-2-(2H-tetrazol-5-ylmethyl)-4,5′-bi-1,3-thiazol-2′-yl]acetamide], the IC50 was 328 nM. As for `CC(=O)Nc1nc(C)c(-c2csc(C(=O)N3CCOCC3)n2)s1` [Example 8, N-[4′-methyl-2-(morpholin-4-ylcarbonyl)-4,5′-bi-1,3-thiazol-2′-yl]acetamide], the half-maximal inhibitory concentration (IC50) is 186 nM. `CCOC(=O)c1nc(-c2sc(NC(C)=O)nc2C)cs1` [Example 1, Ethyl 2′-(acetylamino)-4′-methyl-4,5′-bi-1,3-thiazole-2-carboxylate]: the IC50 was found to be 870 nM. Still for that read-out and setting: as for `CC(=O)Nc1nc(C)c(-c2csc(C(=O)N3CCN(C)CC3)n2)s1` [Example 9, N-{4′-methyl-2-[(4-methylpiperazin-1-yl)carbonyl]-4,5′-bi-1,3-thiazol-2′-yl}acetamide], the figure is 601 nM; as for `CC(=O)Nc1nc(C)c(-c2csc(C(=O)Nc3cccc(-c4nnc(N)s4)c3)n2)s1` [Example 25, 2′-(acetylamino)-N-[3-(5-amino-1,3,4-thiadiazol-2-yl)phenyl]-4′-methyl-4,5′-bi-1,3-thiazole-2-carboxamide], 1540 nM.

The next experiment deals with Akt/PKB phosphorylation in Raw 264-7 macrophages. As to the kind of experiment: Cell based ELISA to monitor PI3K inhibition: Akt/PKB phosphorylation in macrophages after stimulation with Complement 5a. The following applies: Mus musculus, RAW264.7, 50 nM Complement 5a stimulation, phospho Serine 473 Akt, read-out: Cell Assay (P-Akt, Elisa) IC50. How it is done: b) Cell Based ELISA to Monitor PI3K Inhibition:
The efficacy of compounds of the invention in inhibiting the PI3K induced Akt/PKB phosphorylation may be tested in the following cell based assay.
Measurement of Akt/PKB phosphorylation in macrophages after stimulation with Complement 5a: Raw 264: Raw 264-7 macrophages (cultured in DMEM-F12 medium containing 10% Fetal Calf serum and antibiotics) are plated at 20'000 cells/well in a 96 MTP 24 h before cell stimulation. Prior to the stimulation with 50 nM of Complement 5a during 5 minutes, Cells are serum starved for 2 h, and pretreated with inhibitors for 20 minutes. After stimulation cells are fixed in 4% formaldehyde for 20 minutes and washed 3 times in PBS containing 1% Triton X-100 (PBS/Triton). […] Next, phosphorylated Akt/PKB is detected by an overnight incubation at 4° C. with primary antibody (anti phospho Serine 473 Akt IHC, Cell Signaling) diluted 800-fold in PBS/Triton, containing 5% bovine serum albumin (BSA). After 3 washes in PBS/Triton, cells are incubated for 60 minutes with a peroxidase conjugated goat-anti-rabbit secondary antibody ( 1/400 dilution in PBS/Triton, containing 5% BSA), washed 3 times in PBS/Triton, and 2 times in PBS and further incubated in 100 μl of luminescent substrate reagent solution (Pierce) for 2 minutes, followed by the reading (1 s/well). […]
Regarding `CC(=O)Nc1nc(C)c(-c2csc(C(=O)N3CCOCC3)n2)s1` [Example 8, N-[4′-methyl-2-(morpholin-4-ylcarbonyl)-4,5′-bi-1,3-thiazol-2′-yl]acetamide], the half-maximal inhibitory concentration (IC50) is 910 nM. Same read-out and setting: the same measure for `C=CCNC(=O)c1nc(-c2sc(NC(C)=O)nc2C)cs1` [Example 2, 2′-(Acetylamino)-N-allyl-4′-methyl-4,5′-bi-1,3-thiazole-2-carboxamide]: 710 nM.
